# Data reported in patent US6538106B1, “Compositions and methods for treating infections using analogues of indolicidin” (priority 1996, dated 2003).
# Values joined by “and” are separate entries in the source; they are usually repeats but may differ in a detail not shown here. Identical values can stand only once. Like-named read-outs stand apart in the source and are kept apart here.
# Assays:
# Assay type in all cases: cell-based
# P. vulgaris = assay: Synergy assay (agarose dilution, FIC); conditions: P. vulgaris SBPV1; for Mupirocin Comb. MIC: MIC of Mupirocin in combination with the peptide; for Peptide Comb. MIC: MIC of peptide in combination with Mupirocin; for FIC: peptide + Mupirocin; for Peptide MIC: peptide alone
# Method: (§1) Briefly, one assay for in vitro anti-bacterial activity, the agarose dilution assay, is set up with an array of plates that each contain a combination of peptide analogue and antibiotic in various concentrations. The plates are inoculated with bacterial isolates, incubated, and the MICs of the components recorded. […] Antibiotics used in testing include, but are not limited to, penicillins, cephalosporins, carbacephems, cephamycins, carbapenems, monobactams, aminoglycosides, glycopeptides, quinolones, tetracyclines, macrolides, and fluoroquinolones (see Table 1 below).
# (§2) Synergy is calculated according to the formula below. An FIC of ≦0.5 is evidence of synergy, although combinations with higher values may be therapeutically useful. [formula]
# (§3) Treatment with a combination of peptide analogues and conventional antibiotics can have a synergistic effect. Synergy is assayed using the agarose dilution technique, where an array of plates, each containing a combination of peptide and antibiotic in a unique concentration mix, is inoculated with the bacterial isolates. Synergy is investigated for peptide analogues in combination with a number of conventional antibiotics including, but not limited to, penicillins, cephalosporins, carbapenems, monobactams, aminoglycosides, macrolides, fluoroquinolones.
# (§4) Synergy is expressed as a Fractional Inhibitory Concentration (FIC), which is calculated according to the equation below. An FIC of less than or equal to 0.5 is evidence of synergy, although combinations with higher values may be therapeutically useful. [formula]
# E. faecalis = assay: Synergy assay (agarose dilution, FIC); conditions: E. faecalis EFS8; for Mupirocin Comb. MIC: MIC of Mupirocin in combination with the peptide; for Peptide Comb. MIC: MIC of peptide in combination with Mupirocin; for FIC: peptide + Mupirocin; for Peptide MIC: peptide alone
# Method: as §1, §2, §3, §4
# P. aeruginosa = assay: Synergy assay (agarose dilution, FIC); conditions: for Mupirocin Comb. MIC: MIC of Mupirocin in combination with the peptide; for Peptide Comb. MIC: MIC of peptide in combination with Mupirocin
# Method: as §1, §2, §3, §4
# S. aureus = assay: Synergy assay (agarose dilution, FIC); conditions: for Mupirocin Comb. MIC: MIC of Mupirocin in combination with the peptide; for Peptide Comb. MIC: MIC of peptide in combination with Mupirocin; for Peptide MIC: peptide alone; for Ciprofloxacin Comb. MIC: MIC of Ciprofloxacin in combination with the peptide; for Peptide Comb MIC: MIC of peptide in combination with Ciprofloxacin
# Method: as §1, §2
# as §3, with “Synergy” for “Treatment with a combination of peptide analogues and conventional antibiotics can have a synergistic effect. Synergy”
# as §4
# S. marcescens = assay: Synergy assay (agarose dilution, FIC); conditions: for Mupirocin Comb. MIC: MIC of Mupirocin in combination with the peptide; for Peptide Comb. MIC: MIC of peptide in combination with Mupirocin; for FIC: peptide + Mupirocin; for Peptide MIC: peptide alone
# Method: as §1, §2, §3, §4
# E. coli = assay: Synergy assay (agarose dilution, FIC); conditions: for Mupirocin Comb. MIC: MIC of Mupirocin in combination with the peptide; for Peptide Comb. MIC: MIC of peptide in combination with Mupirocin; for FIC: peptide + Mupirocin; for Peptide MIC: peptide alone
# Method: as §1, §2, §3, §4
# S. epidermidis = assay: Broth dilution assay (MIC); conditions: S. epidermidis SE005
# Method: This assay also uses calcium and magnesium supplemented Mueller Hinton broth as the growth medium. Typically 100 μl of broth is dispensed into each well of a 96-well microtitre plate and 100 μl volumes of two-fold serial dilutions of the peptide analogue are made across the plate. One row of wells receives no peptide and is used as a growth control. Each well is inoculated with approximately 5×10^5 CFU of bacteria and the plate is incubated at 35-37° C. for 16-20 hours.
# For example, MIC values were established for a series of peptide analogues against S. aureus strains.
# bacteria = system: bacteria
# [1] = P. aeruginosa PA3, peptide + Mupirocin
# [2] = S. aureus SBSA3, peptide + Mupirocin
# [3] = S. aureus SBSA4, peptide + Mupirocin
compound,measurement,setting,value
"C/C(=C\C(=O)OCCCCCCCCC(=O)O)C[C@@H]1OC[C@H](C[C@@H]2O[C@H]2[C@@H](C)[C@H](C)O)[C@@H](O)[C@H]1O [Mupirocin, reference compound]",MIC,"P. vulgaris; Proteus vulgaris, Mupirocin alone",3 µg/mL
same,MIC,"E. faecalis; Enterococcus faecalis, Mupirocin alone",100 µg/mL
same,Mupirocin MIC,"P. aeruginosa; P. aeruginosa PA24, Mupirocin alone",>100 µg/mL
same,MIC,"S. aureus; Staphylococcus aureus, S. aureus SBSA5, Mupirocin alone",30 µg/mL
I L K K F P F F P F R R K [MBI 11A1CN],Mupirocin Comb. MIC,S. marcescens; S. marcescens SBSM1,>100 µg/mL
same,Peptide Comb. MIC,S. marcescens; S. marcescens SBSM1,>128 µg/mL
same,FIC,S. marcescens; S. marcescens SBSM1,2
same,Mupirocin Comb. MIC,E. faecalis,100 µg/mL
same,Peptide Comb. MIC,E. faecalis,>128 µg/mL
same,FIC,E. faecalis,2
same,Mupirocin Comb. MIC,E. coli; E. coli ECO1,10 µg/mL
same,Peptide Comb. MIC,E. coli; E. coli ECO1,4 µg/mL
same,FIC,E. coli; E. coli ECO1,0.14
same,Mupirocin Comb. MIC,P. aeruginosa; P. aeruginosa PA3,>100 µg/mL
same,Peptide Comb. MIC,P. aeruginosa; P. aeruginosa PA3,>128 µg/mL
same,FIC,P. aeruginosa; [1],2
same,MIC,S. epidermidis,16 µg/mL
same,Mupirocin Comb. MIC,S. aureus; S. aureus SBSA3,100 µg/mL
same,Peptide Comb. MIC,S. aureus; S. aureus SBSA3,>128 µg/mL
same,FIC,S. aureus; [2],2
same,Mupirocin Comb. MIC,S. aureus; S. aureus SBSA5,10 µg/mL
same,Peptide Comb. MIC,S. aureus; S. aureus SBSA5,32 µg/mL
same,FIC,"S. aureus; S. aureus SBSA5, peptide + Mupirocin",0.58
I L K K W P W W P W K [MBI 11G13CN],Mupirocin Comb. MIC,P. vulgaris,3 µg/mL
same,Peptide Comb. MIC,P. vulgaris,>128 µg/mL and 64 µg/mL
same,FIC,P. vulgaris,2 and 1.25
same,Peptide MIC,P. vulgaris,>128 µg/mL
same,Mupirocin Comb. MIC,S. marcescens; S. marcescens SBSM1,>100 µg/mL
same,Peptide Comb. MIC,S. marcescens; S. marcescens SBSM1,>128 µg/mL
same,FIC,S. marcescens; S. marcescens SBSM1,2
same,Peptide MIC,S. marcescens; S. marcescens SBSM1,>128 µg/mL
same,Mupirocin Comb. MIC,E. coli; E. coli ECO5,30 µg/mL
same,Peptide Comb. MIC,E. coli; E. coli ECO5,8 µg/mL
same,FIC,E. coli; E. coli ECO5,0.43
same,Peptide MIC,E. coli; E. coli ECO5,64 µg/mL
same,Mupirocin Comb. MIC,S. aureus; S. aureus SBSA3,100 µg/mL
same,Peptide Comb. MIC,S. aureus; S. aureus SBSA3,64 µg/mL
same,FIC,S. aureus; [2],2
same,Peptide MIC,S. aureus; S. aureus SBSA3,64 µg/mL
I L K K W P W W P W R K [MBI 11B4CN],Mupirocin Comb. MIC,S. marcescens; S. marcescens SBSM1,>100 µg/mL
same,Peptide Comb. MIC,S. marcescens; S. marcescens SBSM1,>128 µg/mL
same,FIC,S. marcescens; S. marcescens SBSM1,2
same,Peptide MIC,S. marcescens; S. marcescens SBSM1,>128 µg/mL
same,Mupirocin Comb. MIC,E. faecalis,100 µg/mL
same,Peptide Comb. MIC,E. faecalis,64 µg/mL
same,FIC,E. faecalis,2
same,Peptide MIC,E. faecalis,64 µg/mL
same,Mupirocin Comb. MIC,E. coli; E. coli ECO1,10 µg/mL
same,Peptide Comb. MIC,E. coli; E. coli ECO1,4 µg/mL
same,FIC,E. coli; E. coli ECO1,0.26
same,Peptide MIC,E. coli; E. coli ECO1,16 µg/mL
same,Mupirocin Comb. MIC,S. aureus; S. aureus SBSA3,10 µg/mL
same,Peptide Comb. MIC,S. aureus; S. aureus SBSA3,16 µg/mL
same,FIC,S. aureus; [2],0.60
same,Peptide MIC,S. aureus; S. aureus SBSA3,32 µg/mL
same,Mupirocin Comb. MIC,S. aureus; S. aureus SBSA4,>100 µg/mL
same,Peptide Comb. MIC,S. aureus; S. aureus SBSA4,8 µg/mL
same,FIC,S. aureus; [3],2
same,Peptide MIC,S. aureus; S. aureus SBSA4,8 µg/mL
I L K K W P W W P W R R K [MBI 11CAN],MIC,"bacteria; A. calcoaceticus AC002, listed as MBI 11ACN",2 µg/mL
same,MIC,"bacteria; E. coli ECO005, listed as MBI 11ACN",16 µg/mL
same,MIC,"bacteria; E. faecalis EFS004, listed as MBI 11ACN",8 µg/mL
same,MIC,"bacteria; K. pneumoniae KP001, listed as MBI 11ACN",16 µg/mL
same,MIC,"bacteria; S. epidermidis SE010, listed as MBI 11ACN",4 µg/mL
same,MIC,"bacteria; S. maltophilia SMA002, listed as MBI 11ACN",64 µg/mL
I L K K Y P Y Y P Y R R K [MBI 11A3CN],Mupirocin Comb. MIC,S. marcescens; S. marcescens SBSM2,>100 µg/mL
same,Peptide Comb. MIC,S. marcescens; S. marcescens SBSM2,>128 µg/mL
same,FIC,S. marcescens; S. marcescens SBSM2,2
same,Mupirocin Comb. MIC,E. faecalis,100 µg/mL
same,Peptide Comb. MIC,E. faecalis,>128 µg/mL
same,FIC,E. faecalis,2
same,Mupirocin Comb. MIC,E. coli; E. coli SBECO1,30 µg/mL
same,Peptide Comb. MIC,E. coli; E. coli SBECO1,8 µg/mL
same,FIC,E. coli; E. coli SBECO1,0.43
same,Mupirocin Comb. MIC,P. aeruginosa; P. aeruginosa PA3,>100 µg/mL
same,Peptide Comb. MIC,P. aeruginosa; P. aeruginosa PA3,>128 µg/mL
same,FIC,P. aeruginosa; [1],2
same,Mupirocin Comb. MIC,S. aureus; S. aureus SBSA2,>100 µg/mL
same,Peptide Comb. MIC,S. aureus; S. aureus SBSA2,128 µg/mL
same,FIC,"S. aureus; S. aureus SBSA2, peptide + Mupirocin",2
K R R W V W W V W R L I [MBI 11F4CNR],MIC,bacteria; S. epidermidis SE010,8 µg/mL
W R I W K P K W R L P K W [MBI 11D18CN],Mupirocin Comb. MIC,P. vulgaris,3 µg/mL
same,Peptide Comb. MIC,P. vulgaris,4 µg/mL
same,FIC,P. vulgaris,1.13
same,Peptide MIC,P. vulgaris,32 µg/mL
same,Mupirocin Comb. MIC,S. marcescens; S. marcescens SBSM1,30 µg/mL
same,Peptide Comb. MIC,S. marcescens; S. marcescens SBSM1,64 µg/mL
same,FIC,S. marcescens; S. marcescens SBSM1,0.28
same,Peptide MIC,S. marcescens; S. marcescens SBSM1,>128 µg/mL
same,Mupirocin Comb. MIC,E. faecalis,100 µg/mL
same,Peptide Comb. MIC,E. faecalis,16 µg/mL
same,FIC,E. faecalis,2
same,Peptide MIC,E. faecalis,16 µg/mL
same,Mupirocin Comb. MIC,E. coli; E. coli SBECO2,10 µg/mL
same,Peptide Comb. MIC,E. coli; E. coli SBECO2,1 µg/mL
same,FIC,E. coli; E. coli SBECO2,0.07
same,Peptide MIC,E. coli; E. coli SBECO2,16 µg/mL
same,Mupirocin Comb. MIC,P. aeruginosa; P. aeruginosa PA2,30 µg/mL
same,Peptide Comb. MIC,P. aeruginosa; P. aeruginosa PA2,64 µg/mL
same,FIC,"P. aeruginosa; P. aeruginosa PA2, peptide + Mupirocin",0.53
same,Peptide MIC,"P. aeruginosa; P. aeruginosa PA2, peptide alone",128 µg/mL
same,Ciprofloxacin Comb. MIC,"P. aeruginosa; P. aeruginosa PA24, MIC of Ciprofloxacin in combination with the peptide",4 µg/mL
same,Mupirocin Comb. MIC,P. aeruginosa; P. aeruginosa PA24,>100 µg/mL
same,Peptide Comb MIC,"P. aeruginosa; P. aeruginosa PA24, MIC of peptide in combination with Ciprofloxacin",16 µg/mL
same,Peptide Comb. MIC,P. aeruginosa; P. aeruginosa PA24,>128 µg/mL
same,FIC,"P. aeruginosa; P. aeruginosa PA24, peptide + Ciprofloxacin",0.31
same,FIC,"P. aeruginosa; P. aeruginosa PA24, peptide + Mupirocin",2
same,Peptide MIC,"P. aeruginosa; P. aeruginosa PA24, peptide alone (Ciprofloxacin table)",>128 µg/mL
same,Peptide MIC,"P. aeruginosa; P. aeruginosa PA24, peptide alone (Mupirocin table)",>128 µg/mL
same,Ciprofloxacin Comb. MIC,S. aureus; S. aureus SA10,32 µg/mL
same,Peptide Comb MIC,S. aureus; S. aureus SA10,2 µg/mL
same,FIC,"S. aureus; S. aureus SA10, peptide + Ciprofloxacin",2.00
same,Peptide MIC,S. aureus; S. aureus SA10,2 µg/mL
same,Ciprofloxacin Comb. MIC,S. aureus; S. aureus SA14,8 µg/mL
same,Peptide Comb MIC,S. aureus; S. aureus SA14,4 µg/mL
same,FIC,"S. aureus; S. aureus SA14, peptide + Ciprofloxacin",1.00
same,Peptide MIC,S. aureus; S. aureus SA14,8 µg/mL
same,Mupirocin Comb. MIC,S. aureus; S. aureus SBSA4,0.1 µg/mL
same,Peptide Comb. MIC,S. aureus; S. aureus SBSA4,2 µg/mL
same,FIC,S. aureus; [3],0.13
same,Peptide MIC,S. aureus; S. aureus SBSA4,16 µg/mL
